“And” between values parts separate entries of the source, which are not always exact repeats. Identical values can stand only once.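 Cells were grown in 96-well plates and exposed to each compound for 48 hours at five concentrations; endpoints were interpolated linearly between bracketing concentrations, or set to the highest concentration if not reached. GI50 is the concentration that inhibits growth by half. TGI: total growth inhibition.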 Where a SMILES comes first, the peptide text is derived from it. The star is where a group is joined. Trt = c1ccc(C(c2ccccc2)(c2ccccc2)*)cc1; Cbz = O=C(OCc1ccccc1)*
These compounds were tested on MDA-MB-468 breast (assay: NCI anticancer screen, dose series, 48 h).
H-QIYKKYRTWYRKAWKVLGKV-NH2 gave a GI50 of 10900 nM and a TGI of 41.9 µM.
Compound `O=C(Nc1nc2ccccc2s1)c1cc(-c2ccc(F)cc2)n2nc(-c3ccccc3)cc2n1` has a GI50 of 5180 nM and a TGI of 36 µM.
For `CCCN1CCC=C(c2ccc(Nc3nc(Nc4ccccc4C(N)=O)c4cc[nH]c4n3)c(C)c2)C1`, the GI50 was > 14600 nM and the TGI was > 25 µM.
With `O=C(/C=C/c1cccc2ccccc12)Nc1ncc(Cc2ccccc2)s1` the GI50 was 665 nM and the TGI was > 24.9 µM.
`COc1ccc(C2=Nc3c/c(=C\c4c(O)[nH]c5cc(Cl)ccc45)ccc3=N2)cc1` gave a GI50 of 3060 nM and a TGI of 10.4 µM.
`O=C(NOCCO)c1cc(CN2OCCCC2=O)c(F)c(F)c1Nc1ccc(I)cc1F` was tested, and the GI50 was 14200 nM and > 10000 nM and the TGI was 66.7 µM and > 10 µM.
Compound `Cc1c(Cl)c(C)c(Cc2c(C)c(Cl)c(C)c(Cl)c2O)c(O)c1Cl` has a GI50 of 1820 nM and a TGI of 8.4 µM.
For `C=C(C)[C@@H]1CC[C@]2(C(=O)NC(C)=O)CC[C@]3(C)[C@H](CC[C@@H]4[C@@]5(C)CCCNC(C)(C)[C@@H]5CC[C@]43C)[C@@H]12`, the GI50 was 1600 nM and the TGI was 3.1 µM.
`Cc1cc(Nc2nc(-c3ccncc3)nc3ccccc23)n[nH]1` was tested, and the GI50 was 6810 nM and the TGI was > 100 µM.
With `COc1ccc(-c2n/c(=C\c3c(O)[nH]c4ccccc34)cc3c2=Nc2ccccc2-3)cc1` the GI50 was 368 nM and the TGI was 1.43 µM.
`Cc1ccc(-c2n[nH]c(=O)c3noc(-c4ccc(C)cc4)c23)cc1` showed a GI50 of 370 nM and a TGI of 4.88 µM.
With `COc1cc(OC)c(/C=C/S(=O)(=O)Cc2ccc(OC)c(NCC(=O)NO)c2)c(OC)c1` the GI50 was 29.3 nM and the TGI was > 100 µM.
With `Cc1c(Cl)cccc1NC(=O)c1sc2nc3c(cc2c1N)CCCC3` the GI50 was 394 nM and the TGI was > 100 µM.
Work on `COc1ccc(C(=O)c2cc3c(N)c(C(=O)Nc4cccc(OC)c4)sc3nc2C)cc1` yielded a GI50 of 396 nM.
With `O=C(Nc1cccc(C(F)(F)F)c1)c1cc2ccccc2cc1O` the GI50 was 2200 nM and the TGI was > 51.6 µM.
In the case of `Oc1ccc(Cl)cc1/C=N\NC(=S)N/N=C/c1cc(Cl)ccc1O`, the GI50 is reported as 1760 nM and the TGI is reported as 7.35 µM.
In the case of `Cn1cc(-c2nc(N[C@@H]3CCCC[C@@H]3N)c(F)c3c2C(=O)NC3)cn1`, the GI50 is reported as 13000 nM and 16900 nM and the TGI is reported as 44.9 µM and 69.9 µM.
`CCCCCCCCCCSC(=N)N` gave a GI50 of 1660 nM and a TGI of 3.2 µM.
With `Nc1nc(N)c2c(n1)NC(c1sc(Cl)nc1Cl)CC(c1ccc3c(c1)OCO3)=N2` (stereo unspecified) the GI50 was 1650 nM and the TGI was 13.3 µM.
`C=CC(C)(O)CC/C=C(\CO)C(=O)OC1C(C)OC(O[C@](C)(C=C)CC/C=C(\CO)C(=O)O[C@H]2C[C@@]3(C(=O)OC4OC(CO)C(O)C(O)C4OC4OC(C)C(OC5OC(CO)C(O)C5O)C(OC5OC(CO)C(O)C(O)C5O)C4O)C(CC2(C)C)C2=CCC4[C@@]5(C)CC[C@H](OC6OC(COC7OC(C)C(O)C(O)C7OC7OCC(O)C(O)C7O)C(O)C(O)C6NC(C)=O)C(C)(C)C5CC[C@@]4(C)[C@]2(C)C[C@H]3O)C(O)C1O` (stereo partly specified) was tested, and the GI50 was 189 nM and the TGI was 0.848 µM.
Compound `O=C(C=C=Nc1ccccc1)C(=O)N=C=Cc1ccccc1` has a GI50 of 2100 nM and a TGI of 4.93 µM.
`CCOC(=O)c1c(NCC(=O)Nc2ccc(Br)cc2)sc2c1CCCC2` gave a GI50 of 1950 nM and a TGI of 4.53 µM.
For `COc1cc(Cn2c(-c3ccccc3)cc3c2-c2oncc2CC3)cc(OC)c1`, the GI50 was 211 nM and the TGI was 0.745 µM.
`O=C1/C(=C\c2ccccc2)C2OCC=C3CN4CCC56c7ccccc7N1C5C2C3CC46` (stereo unspecified) gave a GI50 of 3310 nM and a TGI of 26.1 µM.
Work on `CN=C(N)N/N=C(\C)c1ccc2c(c1)Cc1ccccc1-2` yielded a GI50 of 1790 nM and a TGI of 4.4 µM.
Work on `C=C(C)[C@@H]1CC[C@]2(CO)CC[C@]3(C)[C@H](CC[C@@H]4[C@@]5(C)CC[C@H](NCO)C(C)(C)[C@@H]5CC[C@]43C)[C@@H]12` yielded a GI50 of 854 nM and a TGI of 1.71 µM.
`NC(=O)c1ccc(N(C(N)=O)c2c(F)cccc2F)nc1-c1ccc(F)cc1F` was tested, and the GI50 was > 100000 nM and the TGI was > 100 µM.
With `COc1cccc2c1cc1c3c(cc4c(c32)OCO4)C(=O)N1` the GI50 was 2040 nM and the TGI was 6.22 µM.
`CCN(CC)Cc1cc(Nc2c3ccccc3nc3cc(Cl)ccc23)ccc1O` gave a GI50 of 1500 nM and a TGI of 3.06 µM.
`Nc1c(C(=O)Nc2cccc3ccccc23)sc2nc3c(cc12)C(=O)CCC3` was tested, and the GI50 was 195 nM and the TGI was > 45 µM.
`COC(=O)C(CSC(c1ccccc1)(c1ccccc1)c1ccccc1)NC(=O)C(CC(N)=O)NC(=O)OCc1ccccc1` (stereo not drawn) (Cbz-Asn-Cys(Trt)-OMe; configuration not given here) was tested, and the GI50 was 3130 nM and the TGI was 14.6 µM.
For `O=C(CCCCCCCCC(=O)N/N=C\c1cc(Cl)ccc1O)N/N=C\c1cc(Cl)ccc1O`, the GI50 was 1440 nM and the TGI was 7.36 µM.
In the case of `Cn1cc(C2=C(c3cn(CCCCC(=N)N)c4ccccc34)C(=O)NC2=O)c2ccccc21`, the GI50 is reported as 9810 nM and the TGI is reported as > 25 µM.
Compound `C/C(=N\NC(=O)CSc1nc2sc3c(c2c(=O)n1-c1ccccc1)CCC(C)C3)c1ccc(Cl)cc1` (stereo unspecified) has a GI50 of 1550 nM and a TGI of 5.92 µM.
`Cc1cc2nc3c4ccc(Br)cc4n(CCN(C)C)c3nc2cc1C` gave a GI50 of 1210 nM and a TGI of 2.91 µM.
`COc1cc(/C=N/NC(=O)c2ccccc2Nc2cccc(C(F)(F)F)c2)cc(OC)c1OC` gave a GI50 of 1750 nM and a TGI of 11.8 µM.
